Results as given in patent US11884675B2, “Heterocyclic compounds as triggering receptor expressed on myeloid cells 2 agonists and methods of use” (AMGEN INC., priority 2020, dated 2024).

These molecules were tested against T1, hTREM2 (Homo sapiens, UniProt Q9NZC2) (assay: TREM2 activity by cellular Syk phosphorylation (AlphaScreen/AlphaLISA) in TREM2/DAP12-HEK cells, used for Examples 1-305). Settings: HEK293 Cells.
T1 sequence (Q9NZC2 19-230): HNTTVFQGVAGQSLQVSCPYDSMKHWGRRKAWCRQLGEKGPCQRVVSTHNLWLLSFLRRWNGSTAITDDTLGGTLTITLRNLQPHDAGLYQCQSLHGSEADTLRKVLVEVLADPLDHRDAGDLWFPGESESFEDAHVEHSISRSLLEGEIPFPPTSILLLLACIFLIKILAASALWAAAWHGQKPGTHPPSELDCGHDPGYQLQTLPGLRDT
T1 sequence (O43914 22-113 partner): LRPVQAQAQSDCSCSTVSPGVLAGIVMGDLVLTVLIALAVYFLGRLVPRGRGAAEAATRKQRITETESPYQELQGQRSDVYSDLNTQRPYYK
Type: cell-based
Design: expressed in transfected cells
How it was run: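 Single-cell-cloned HEK293 cells overexpressing TREM2 and DAP12, seeded 20 h, exposed to test articles (1% final DMSO) for 45 min at room temperature. Lysates read for phospho-Syk (Tyr525/526) vs total Syk by AlphaScreen. Signal normalised as percent of control between isotype IgG and 100 nM anti-TREM2 antibody; 4-parameter logistic fit.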
For Cc1ccc(-c2nc(N3CCO[C@@H](c4ccnc(C)c4)C3)nc3nc(C)cnc23)c(F)c1 [Example 10, 4-(2-fluoro-4-methylphenyl)-7-methyl-2-((2S)-2-(2-methyl-4-pyridinyl)-4-morpholinyl)pteridine], the EC50 was no more than 50 nM and the “hTREM2 Emax” value was “+++ (Emax>150 and ≤250)”. In the case of Cc1nc2nc(N3CCO[C@@H](c4cnn(C)c4)C3)nc(N3CCC(C)(C)C3)c2nc1C [Example 72, 4-(3,3-dimethyl-1-pyrrolidinyl)-6,7-dimethyl-2-((2S)-2-(1-methyl-1H-pyrazol-4-yl)-4-morpholinyl)pteridine], the EC50 is reported as 500 to 3000 nM and the “hTREM2 Emax” value is reported as “+ (Emax>45 and ≤100)”. For Cc1nc2nc(N3CCC(F)(F)[C@@H](c4cnn(C)c4)C3)nc(-c3ccc(Cl)cc3F)c2nc1C (single isomer, unassigned) [Example 123], the EC50 was no more than 50 nM and the “hTREM2 Emax” value was “+++ (Emax>150 and ≤250)”. In the case of Cc1cc([C@@H]2C[C@H](c3cc4nc(C)c(C)nc4c(-c4ccc(Cl)cc4F)n3)CCO2)ccn1 (relative stereo) [Example 217, 5-(4-chloro-2-fluorophenyl)-2,3-dimethyl-7-((2S,4R)-2-(2-methyl-4-pyridinyl)tetrahydro-2H-pyran-4-yl)pyrido [3,4-b]pyrazine], the EC50 is reported as 50 to 500 nM and the “hTREM2 Emax” value is reported as “+++ (Emax>150 and ≤250)”. Cc1ccc2c(-c3ccc(F)cc3F)nc(N3CCO[C@@H](c4cnn(C)c4)C3)nc2n1 [Example 91, 4-(2,4-difluorophenyl)-7-methyl-2-((2S)-2-(1-methyl-1H-pyrazol-4-yl)-4-morpholinyl)pyrido[2,3-d]pyrimidine] was tested, and the EC50 was 50 to 500 nM and the “hTREM2 Emax” value was “+++ (Emax>150 and ≤250)”. In the case of Cc1nc2nc(N3CCO[C@@H](c4cnn(C)c4)C3)nc([C@@H]3CCC(C)(C)C3)c2nc1C [Example 303, (S)-4-(4-((R)-3,3-dimethylcyclopentyl)-6,7-dimethylpteridin-2-yl)-2-(1-methyl-1H-pyrazol-4-yl)morpholine], the EC50 is reported as 50 to 500 nM and the “hTREM2 Emax” value is reported as “++ (Emax>100 and ≤150)”. With Cc1ccc2c(-c3ccc(Cl)cc3F)nc(N3CCO[C@@H](c4cnn(C5CC5)c4)C3)nc2n1 [Example 85, 4-(4-chloro-2-fluorophenyl)-2-((2S)-2-(1-cyclopropyl-1H-pyrazol-4-yl)-4-morpholinyl)-7-methylpyrido[2,3-d]pyrimidine] the EC50 was no more than 50 nM and the “hTREM2 Emax” value was “+++ (Emax>150 and ≤250)”. With Cc1nc2cc(N3CCO[C@@H](c4cnn(C)c4)C3)cc(-c3ccc(Cl)cc3F)c2nc1C [Example 162, 5-(4-chloro-2-fluorophenyl)-2,3-dimethyl-7-((2S)-2-(1-methyl-1H-pyrazol-4-yl)-4-morpholinyl) quinoxaline] the EC50 was no more than 50 nM and the “hTREM2 Emax” value was “++++ (Emax>250)”. In the case of Cc1cnc2c(-c3ccc(Cl)cc3F)nc(N3CCO[C@@H](c4cnn(C5CC5)c4)C3)cc2n1 [Example 76, 5-(4-chloro-2-fluorophenyl)-7-((2S)-2-(1-cyclopropyl-1H-pyrazol-4-yl)-4-morpholinyl)-2-methylpyrido[3,4-b]pyrazine], the EC50 is reported as 50 to 500 nM and the “hTREM2 Emax” value is reported as “++++ (Emax>250)”. With Cc1ccc(-c2nc(N3CCO[C@@H](c4cnn(C5CC5)c4)C3)nc3nc(C)c(C)nc23)c(F)c1 [Example 38, 2-((2S)-2-(1-cyclopropyl-1H-pyrazol-4-yl)-4-morpholinyl)-4-(2-fluoro-4-methylphenyl)-6,7-dimethylpteridine] the EC50 was no more than 50 nM and the “hTREM2 Emax” value was “+++ (Emax>150 and ≤250)”. In the case of Cc1nc2cc(N3CCO[C@@H](c4cnn(C)c4)C3)nc([C@H]3C[C@H](C(F)(F)F)C3)c2nc1C [Example 80, 2,3-dimethyl-7-((2S)-2-(1-methyl-1H-pyrazol-4-yl)-4-morpholinyl)-5-(trans-3-(trifluoromethyl)cyclobutyl)pyrido[3,4-b]pyrazine], the EC50 is reported as 50 to 500 nM and the “hTREM2 Emax” value is reported as “++ (Emax>100 and ≤150)”.

These molecules were tested against T1, hTREM2 (assay: TREM2 agonist potency by Syk phosphorylation (AlphaLisa) in HEK293T-hTREM2 cells, used for Examples 306-429). Settings: HEK293 Cells.
Type: cell-based
Design: expressed in transfected cells; host or cells: HEK293T (HEK293T-hTREM2 cells)
Protocol: In vitro Measurement of Triggering Receptor Expressed on Myeloid Cells 2 activity using cellular phosphorylation of Spleen Tyrosine Kinase (“Syk”) Assays used for Examples 306-429
Measurement of TREM2 agonist potency was done using a HEK cell line expressing human TREM2 and DAP12 (HEK293T-hTREM2 cells). Binding of small molecules to, and activation of, TREM2 increases the phosphorylation of Syk. The resultant levels of Syk phosphorylation were measured using a commercial AlphaLisa reagent kit. To perform the assay, HEK-hTREM2 cells were plated at 14,000 cells per well in a 384 well plate, in 25 μL, of complete growth media and incubated at 37° C., 5% CO2 for 20-24 hours. Prior to the assay, test compounds were diluted in the 384 well plates in assay buffer and allowed to equilibrate for 30 minutes. Growth media was removed from cell plates by inversion on blotting paper, and 25 μL of test compounds in assay buffer was added to cells. Cells were incubated for 45 minutes at room temperature. After 45 minutes, assay buffer was removed and 10 μL of lysis buffer was added. Plates were shaken for 20 minutes at 350 RPM at room temperature. After complete lysis, AlphaLisa reagents were added to the lysate, and fluourescence intensity was measured using a Perkin Elmer Envision plate reader. Intensities were used to generate a standard curve, and % activation was calculated. Curve fitting was performed using Prism v9 software, log(agonist) vs response-variable slope (four parameters), and EC50s were calculated from the curve fit.
The results presented in Table 20 have been generated with the in vitro assay described above for Examples 306-429. This assay may be used to test any of the compounds described herein to assess and characterize a compound's ability to act as an agonist of TREM2.
In the case of Cc1cc([C@H]2C[C@@H](c3nc(-c4ccc(F)cc4F)c4ccc(C)nc4n3)CCO2)ccn1 (racemic) [Example 323, 4-(2,4-difluorophenyl)-7-methyl-2-(2-(2-methylpyridin-4-yl)tetrahydro-2H-pyran-4-yl)pyrido[2,3-d]pyrimidine], the EC50 is reported as no more than 50 nM. Work on Cc1cc([C@H]2C[C@H](c3cc4nc(C)c(C)nc4c(-c4ccc(F)cc4F)n3)CCO2)ccn1 [Example 331, 5-(2,4-difluorophenyl)-2,3-dimethyl-7-((2R,4R)-2-(2-methylpyridin-4-yl)tetrahydro-2H-pyran-4-yl)pyrido[3,4-b]pyrazine] yielded an EC50 of 500 to 3000 nM. With Cc1cc([C@@H]2CN(c3cc4nc(C)cnc4c(-c4ccc(F)cc4F)n3)CCO2)ccn1 [Example 333, (R)-4-(5-(2,4-difluorophenyl)-2-methylpyrido[3,4-b]pyrazin-7-yl)-2-(2-methylpyridin-4-yl)morpholine] the EC50 was 500 to 3000 nM. In the case of Cc1cnc2c(C34CC(C(F)(F)F)(C3)C4)nc([C@H]3CCO[C@@H](c4cnn(C5CC5)c4)C3)cc2n1 (racemic) [Example 386, 2-methyl-7-[2-(1-cyclopropylpyrazol-4-yl)tetrahydropyran-4-yl]-5-[3-(trifluoromethyl)-1-bicyclo[1.1.1]pentanyl]pyrido[3,4-b]pyrazine], the EC50 is reported as no more than 50 nM. Cc1cc(C2CN(c3nc(-c4ccc(Cl)cc4C(F)(F)F)c4nc(C)c(C)nc4n3)CCO2)ccn1 (stereo not shown) [Example 343, 4-(4-(4-chloro-2-(trifluoromethyl)phenyl)-6,7-dimethylpteridin-2-yl)-2-(2-methylpyridin-4-yl)morpholine] was tested, and the EC50 was 50 to 500 nM. [2H]C([2H])([2H])c1nc2nc([C@H]3CCO[C@@H](c4ccnc(C)c4)C3)nc(-c3ccc(Cl)c(F)c3F)c2nc1C([2H])([2H])[2H] (racemic) [Example 395, 4-(4-chloro-2,3-difluoro-phenyl)-2-[2-(2-methyl-4-pyridyl)tetrahydropyran-4-yl]-6,7-bis(trideuteriomethyl)pteridine] showed an EC50 of no more than 50 nM. In the case of Cc1cc(C2CC(c3cc4nc(C)c(C)cc4c(-c4ccc(F)cc4F)n3)CCO2)ccn1 (stereo not shown) [Example 328, 5-(2,4-difluorophenyl)-2,3-dimethyl-7-(2-(2-methylpyridin-4-yl)tetrahydro-2H-pyran-4-yl)-1,6-naphthyridine], the EC50 is reported as no more than 50 nM. Molecule Cc1nc2nc(N3CC(C)OC(c4cnn(C5CC5)c4)C3)nc(-c3ccc(F)cc3F)c2nc1C (stereo not shown) [Example 369, 2-(1-cyclopropyl-1H-pyrazol-4-yl)-4-(4-(2,4-difluorophenyl)-6,7-dimethylpteridin-2-yl)-6-methylmorpholine] has an EC50 of no more than 50 nM. In the case of Cc1cc(C2CN(c3cc4nc(C)cnc4c(-c4ccc(F)cc4F)n3)CCO2)ccn1 (stereo not shown) [Example 313, 4-(5-(2,4-difluorophenyl)-2-methylpyrido[3,4-b]pyrazin-7-yl)-2-(2-methylpyridin-4-yl)morpholine], the EC50 is reported as no more than 50 nM. Cc1cc(C2CC(c3cc4nc(C)ccc4c(-c4ccc(F)cc4F)n3)CCO2)ccn1 (stereo not shown) [Example 326, 5-(2,4-difluorophenyl)-2-methyl-7-(2-(2-methylpyridin-4-yl)tetrahydro-2H-pyran-4-yl)-1,6-naphthyridine] was tested, and the EC50 was no more than 50 nM. With Cc1cnc2c(-c3ccc(Cl)cc3F)nc(N3C[C@@H](c4cnn(C5CC5)c4)O[C@@H](C)C3)nc2n1 [Example 423, (2R,6S)-4-(4-(4-chloro-2-fluorophenyl)-7-methylpteridin-2-yl)-2-(1-cyclopropyl-1H-pyrazol-4-yl)-6-methylmorpholine] the EC50 was 50 to 500 nM. Cc1cc([C@H]2C[C@@H](c3nc(-c4ccc(C(F)(F)F)nc4)c4nc(C)c(C)nc4n3)CCO2)ccn1 (racemic) [Example 309, 6,7-dimethyl-2-(2-(2-methylpyridin-4-yl)tetrahydro-2H-pyran-4-yl)-4-(6-(trifluoromethyl)pyridin-3-yl)pteridine] showed an EC50 of 50 to 500 nM. Work on Cc1cc([C@H]2CN(c3cc4nc(C)cnc4c(-c4ccc(F)cc4F)n3)CCO2)ccn1 [Example 334, (S)-4-(5-(2,4-difluorophenyl)-2-methylpyrido[3,4-b]pyrazin-7-yl)-2-(2-methylpyridin-4-yl)morpholine] yielded an EC50 of no more than 50 nM. With Cc1cc([C@H]2C[C@@H](c3cc4nc(C)c(C)cc4c(-c4ccc(Cl)cc4F)n3)CCO2)ccn1 (racemic) [Example 401, 5-(4-chloro-2-fluoro-phenyl)-2,3-dimethyl-7-[2-(2-methyl-4-pyridyl)tetrahydropyran-4-yl]-1,6-naphthyridine] the EC50 was no more than 50 nM. In the case of Cc1cnc2c(C34CC(C(F)(F)F)(C3)C4)nc([C@@H]3CCO[C@@H](c4cnn(C5CC5)c4)C3)nc2n1 [Example 406, 2-((2R,4R)-2-(1-cyclopropyl-1H-pyrazol-4-yl)tetrahydro-2H-pyran-4-yl)-7-methyl-4-(3-(trifluoromethyl)bicyclo[1.1.1]pentan-1-yl)pteridine], the EC50 is reported as 500 to 3000 nM.
